Results taken from PubChem BioAssay AID1508591.

Conditions: rat; liver microsomes; pH 7.4; 15.0 min; 1.0 µM

Structure (SMILES) | half-life
CC1=C(C(=O)Nc2ccccc2)C(c2ccccc2Cl)N=C(Nc2nc3ccccc3o2)N1 (stereo not drawn) | 24 min
CCCNc1oc(-c2cccc3ccccc23)nc1C#N | 13 min
CC[C@@H](CO)NC(=O)[C@@H]1C=C2c3cccc4c3c(cn4C)C[C@H]2N(C)C1 | > 30 min
Fc1cc(Nc2nc(-c3ccncc3)nc3ccccc23)ccc1-c1cc(F)c(F)c(F)c1 | > 30 min
Cc1cc(C)c(C(=O)Nc2cccc([S+](=O)([O-])N3CCCC3)c2)[nH]1 | 6.5 min
COc1cccc(CNc2ccc(S(=O)(=O)Nc3ccccc3)cc2)c1O | 6.7 min
CC(C)(C)c1ccc(C(=O)Nc2cn3cc(-n4ccnc4)ccc3n2)cc1 | > 30 min
Cc1sc(NC(=O)Cc2ccc3c(c2)OCO3)nc1-c1ccc2c(c1)CCN2C(=O)c1ccccc1F | 20 min
CC1=C(C(=O)NCc2ccccc2)C(c2ccccc2Br)N=C(Nc2nc3ccccc3o2)N1 (stereo not drawn) | 7 min
N#CC1(c2ccc(NC(=O)c3cccnc3NCc3ccncc3)cc2)CCCC1 | 9.14 min
Cc1cc(C)nc(NC(=S)N2CCN(c3nccc(C(F)(F)F)n3)CC2)c1 | 16 min
COc1ccc(-c2cc(-c3ccccc3)nc(SCC(=O)Nc3ccccc3C)c2C#N)cc1 | 2.47 min
Cc1cccc(-c2[nH]c(C(C)(C)C)nc2-c2ccc3nccnc3c2)n1 | > 30 min
Cn1cc2c3c(cccc31)CN(C(=O)c1ccc(F)c(Cl)c1)CC2 | 1.88 min
COc1ccc(NC(=O)c2[nH]c(C)cc2C)cc1S(=O)(=O)Nc1ccc(Br)cc1 | > 30 min
O=C1CCC(C(=O)N2CCSCC2)CN1Cc1ccc(Cl)cc1 (stereo not drawn) | 10 min
O=C1CCCC2=C1C(c1[nH]ncc1Cl)N=C(Nc1nc3c(Cl)cccc3o1)N2 (stereo not drawn) | 3.4 min
Cc1ccc(-c2csc(CCn3nc(C)c4c(C(F)(F)F)cc(=O)[nH]c43)n2)cc1 | 4.7 min
O=C(Nc1nc2cc(C(F)(F)F)cc(NC3CC3)n2n1)c1cccnc1 | > 30 min
Cc1cccc(N2CCN(C(=O)c3ccc4c(c3)C(O)CCCCCN4C)CC2)c1 (stereo not drawn) | 1.28 min
COc1ccc(NC(=O)c2c(C)cccc2C)cc1[S+](=O)([O-])N1CCCCCC1 | 1.8 min
COC[C@@H]1CN(C(=O)c2n[nH]c3ccccc23)C[C@H]1c1nc(C)no1 | > 30 min
COC(=O)C1=C(C)NC(C)=C(C(=O)O[C@@H]2CCCN(Cc3ccccc3)C2)[C@@H]1c1cccc([N+](=O)[O-])c1 | 1.3 min
CCN(CC)[S+](=O)([O-])c1cc(NC(=O)c2[nH]c(C)c(C(C)=O)c2C)ccc1OC | 4.7 min
N[C@@H](Cc1cc(Br)c(O)c(Br)c1)C(=O)O | > 30 min
O=[N+]([O-])c1ccc(CNc2ccc([S+](=O)([O-])Nc3nccs3)cc2)c(O)c1 | 13 min

Structure (SMILES) | half-life
Oc1ccc(Nc2nc(-c3ccncc3)nc3ccccc23)cc1F | 28 min
O=C(c1cnccn1)N1CCC2(CCCN(C(c3ccccc3)c3ccccc3)C2)CC1 | 1.8 min
Cc1c(Cl)cccc1-n1ncc(C(=O)Nc2ccc(Br)cc2F)c1C1CCNCC1 | 9.8 min
N#Cc1nc(-c2cccc3ccccc23)oc1NC1COC1 | 28 min
O=C(NC1CCCc2c1cnn2-c1cccc(O)c1)c1ccccn1 (stereo not drawn) | 11.9 min
CCOc1ccc(CCNC(=O)c2cc3ccccc3n2C)cc1OCC | 1.38 min
Cc1cccc(S(=O)(=O)c2cn(Cc3ccccc3)c3cc(N4CCCCC4C)c(F)cc3c2=O)c1 (stereo not drawn) | 2 min
Cc1noc(C)c1C(=O)N1CCC2(CC1)CCN(C(c1ccccc1)c1ccccc1)CC2 | 9.4 min
CCCCCCCC/C=C\CCCCCCCC(=O)NCCO | 2.33 min
CO[C@@H]1/C=C\O[C@@]2(C)Oc3c(C)c(O)c4c(c3C2=O)C(=N[C@H]2CC[C@H](O)O[C@@H]2C)C=C(NC(=O)/C(C)=C\C(=O)[C@@H]2C[C@@H]2[C@@H](O)[C@H](C)[C@@H](O)[C@H](C)[C@H](OC(C)=O)[C@@H]1C)C4=O | 9.93 min
Cc1ccc(S(=O)(=O)Nc2cnccc2C(=O)Nc2ccc(S(=O)(=O)Nc3nccs3)cc2)cc1 | 5.3 min
Cc1cccc(C)c1NC(=O)c1nc(SC(C)C)ncc1Cl | 1.38 min
Cc1cn(CCN2CCN(c3ccccc3-c3cc(C#N)cc(C(=O)NCCCN4CCCC4)c3)CC2)c2ccccc12 | > 30 min
CC(C)c1ccccc1-c1ncc(F)c(NCC2CCN(c3cccnc3)CC2)n1 | 3 min
Cc1ccccc1C(C(=O)NC1CCCC1)N(C(=O)Cn1cnc2ccccc21)c1cccc(F)c1 (stereo not drawn) | 1.67 min
Cc1ccc(S(=O)(=O)Nc2cnccc2C(=O)Nc2nc(-c3nc4ccccc4s3)cs2)cc1 | 24 min
CNC(=O)C1CCN(c2nc(-c3ccc(Br)cc3)cs2)CC1 | 26.2 min
Nc1nc2c(s1)C(c1cc(Cl)ccc1F)CC(=O)N2 (stereo not drawn) | > 30 min
Nc1c(C(=O)Nc2ccc(Cl)c(C(F)(F)F)c2)sc2nc3c(cc12)N1CCC3CC1 | 22.1 min
Cc1noc(C)c1-c1cc2c(cc(C)n2C)c(-c2cnn(C)c2)n1 | > 30 min
O=C(NC1CCCc2c1cnn2-c1ccc(F)cc1F)c1ccccc1 (stereo not drawn) | > 30 min
COc1ccc2c3c([nH]c2c1)C1CC2C(CC(O)C(OC)C2CO)CN1CC3 (stereo not drawn) | > 30 min
CCOc1ccc(CCNC(=O)c2ccc3ccccc3n2)cc1OCC | 1.7 min
CN(C)C(=O)c1cc(-c2ccc(S(C)(=O)=O)cc2)c2cnn(C)c2n1 | > 30 min
Cc1nsc(N)c1C(=O)N(C)CCOc1ccccc1Cl | 3.7 min
CN(C)C(=O)c1cc2cnc(Nc3ccc(N4CCNCC4)cn3)nc2n1C1CCCC1 | > 30 min

Structure (SMILES) | half-life
O=C1CCCCc2cc(O)c(O)cc21 | > 30 min
O=C1c2ccccc2C2=Nc3ccccc3SC(c3ccccc3F)C12 (stereo not drawn) | 3.11 min
CC(C)c1ccccc1-c1nc2c(c(NCc3ccc(-c4cccnc4)cc3)n1)CNC2 | 6.21 min
Oc1ccc(CNc2ccccc2Br)c2cccnc12 | 4.46 min
COc1cccc(-c2noc(Nc3ccc4c(c3)OCCO4)n2)c1 | 20.7 min
CN1C(=O)CN=C(c2ccccc2Cl)c2cc(Cl)ccc21 | 3.04 min
COc1cc2nc(N3CCCC3)nc(NCCCCCN3CCCC3)c2cc1OC | > 30 min
CC(C)OC(=O)c1ccnc2cc(C(OCCN3CCCCC3)c3ccccc3Cl)sc12 (stereo not drawn) | 4.49 min
COC(=O)CNC(=O)c1nc(-c2ccc(F)cc2)c2ccccn12 | 0.91 min
NC(=O)C1CCN(c2nc(-c3ccccc3F)cs2)CC1 | 3.04 min
Fc1ccccc1Nc1nc(-c2ccncc2)nc2ccccc12 | 7.9 min
Cc1nn(-c2ccccc2)c2nc(C3CC3)cc(C(=O)Nc3ccc(F)cc3)c12 | > 30 min
CC(C)(C)c1cc(NC(=O)Nc2ccc(-c3cn4c(n3)sc3cc(OCCN5CCOCC5)ccc34)cc2)no1 | > 30 min
Cc1ccc(-c2c(CN3CCN(c4cccc(C(F)(F)F)c4)CC3)csc2C)cc1 | 18.5 min
O=C(CNC(=O)c1cnccn1)NC1CCCc2c1[nH]c1ccc(Cl)cc21 (stereo not drawn) | > 30 min
Cc1nn2c(c1-c1ccccc1-c1ccccc1)N(Cc1ccccc1)CCC2 | 1.23 min
CCNC(=O)Nc1ncc(-c2cc(-c3c(C)cc(OC)cc3C)nc(-c3cnccn3)n2)s1 | > 30 min
O=C(Nc1ccc(N2CCC(N3CCCCC3)CC2)c(C(=O)O)c1)c1ccc(Br)cc1 | > 30 min
COc1ccc(O)c2c(=O)c3c(OC)cc4c(c3oc12)C1C=COC1O4 (stereo not drawn) | 2.79 min
O=C(CSc1ccccc1)Nc1nnc(COc2ccc(Cl)cc2)s1 | 7 min
Cc1ccc(CNc2ccccc2C(=O)Nc2nc(-c3ccccc3)cs2)cc1 | > 30 min
CCOC(=O)[C@H]1O[C@H]1C(=O)N[C@@H](CC(C)C)C(=O)NCCC(C)C | 1.48 min
Clc1ccc(C2(c3ccc(-c4cn[nH]c4)cc3)CCNCC2)cc1 | > 30 min
O=C(Nc1ccc(S(=O)(=O)Nc2nc(-c3ccccc3)cs2)cc1)c1ccc2ccccc2c1 | > 30 min
COc1cc2c(cc1OCCCN1CCCC1)N=C(N)C21CCC1 | > 30 min
COC(=O)CNC(=O)c1nc(-c2ccc(Cl)nc2)c2ccccn12 | 4.72 min

Structure (SMILES) | half-life
Cc1ccc(S(=O)(=O)Nc2cnccc2C(=O)Nc2ccccc2)cc1 | 2.6 min
Fc1ccc(CN2CCOC[C@H]2c2ncc(-c3ccc(Cl)s3)[nH]2)cc1 | 3.47 min
FC(F)(F)c1cccc(N2CCN(C(=S)Nc3nccc4ccccc34)CC2)c1 | > 30 min
CCOc1ccc(CCNC(=O)c2cc3ncccc3n2Cc2cccc(C)c2)cc1OCC | 1.9 min
CC(C)c1nc2oc3c(NCCN(C)C)ncnc3c2c2c1COC(C)(C)C2 | > 30 min
CCN(CC)CCOc1ccc2c(=O)c3ccc(Cl)cc3n(CCN(CC)CC)c2c1 | 7.9 min
CC(C)(O)Cn1c(NC(=O)c2ccc(-c3cn[nH]c3)s2)nc2cc(CN3CCOCC3)ccc21 | 14 min
O=C(O)C1CCN(c2ncc(-c3ccc4c(c3)OCCCO4)s2)CC1 | > 30 min
COc1ccccc1N1CCN(C2CCCCC2NS(=O)(=O)c2ccccc2)CC1 (stereo not drawn) | 1.69 min
O=C(NCCN1CCOCC1)C1CC(=O)N(c2n[nH]c3cc(Br)ccc23)C1 (stereo not drawn) | > 30 min
Cc1ccc(-c2cc(C(=O)Nc3ccc(S(=O)(=O)N(C)Cc4nccs4)cc3)c3ccccc3n2)cc1C | 4.1 min
O=c1c(O)c(-c2ccc(O)cc2)oc2cc(O)cc(O)c12 | 6.13 min
Clc1ccc(C2=Nn3c(nnc3-c3ccncc3)SC2)cc1 | 9.1 min
O=C1CCCc2cc(S(=O)(=O)Nc3cnccc3C(=O)Nc3nc(-c4ccccc4)cs3)ccc2N1 | > 30 min
O=C(Nc1ccc(OC(F)(F)F)cc1)c1sccc1NCc1ccnc2ccccc12 | 18.7 min
Cc1ccc(N2CCN(c3cnn(-c4nc5ccccc5s4)c(=O)c3Cl)CC2C)cc1 (stereo not drawn) | 10.5 min
O=S(=O)(Nc1cccc2ccccc12)c1ccc(NCc2cccc(Cl)c2O)cc1 | 4.3 min
O=C(Cc1nc2ccc(Cl)cc2[nH]1)Nc1ccc(S(=O)(=O)Nc2nccs2)cc1 | > 30 min
Cc1c(-c2cccc(NC(=O)c3ccc(F)c(F)c3)c2)nc2ncccn12 | 12.6 min
Cc1ccc(/C=C/c2nc3ccccc3n2S(=O)(=O)c2cccc(Cl)c2)cc1 | 17.6 min
COc1ccc(CNc2ccc(S(=O)(=O)Nc3nccs3)cc2)c(O)c1 | 3.9 min
CN(C)c1cccc(-c2nnc(N3CCC(C(N)=O)CC3)s2)c1 | 15.7 min
Cc1nc2ccc(Nc3nc(-c4ccncc4)nc4ccccc34)cc2s1 | 10 min
CCOc1ccc(CCNC(=O)c2ccc(Oc3ccccc3)cc2)cc1OCC | 1.9 min
O=C(NCCCn1ccnc1)c1nc(-c2ccccc2)cc2[nH]ccc12 | > 30 min
